ChEMBL document CHEMBL4616584, “Designing around Structural Alerts in Drug Discovery” (J Med Chem, 2020)
Each block holds one compound with its values, some of them ahead of it.

What was measured:
[1] = Covalent protein binding in human liver microsomes assessed per mg protein at 10 uM preincubated for 5 mins followed by UDPGA addition and measured after 60 mins by liquid scintillation counting method; assay type: ADME, Microsome; settings: 1 h
[2] = Half life in potassium phosphate buffer by liquid chromatography-tandem mass spectrometry; assay type: physicochemical
[3] = Half life of the compound; assay type: physicochemical
[4] = Half life of the compound in buffer; assay type: physicochemical
[5] = Covalent protein binding in human liver microsomes assessed per mg protein at 50 uM after 60 mins in presence of NADPH by LC-MS/MS method; assay type: ADME, Microsome; settings: 1 h
in vitro = settings: human, platelets
[6] = Half life of the compound at pH 7.4; assay type: physicochemical

SMILES: CC(C)Cc1ccc(C(C)C(=O)O)cc1 (configuration not stated) [IBUPROFEN]
PB [1]: 1000 to 8600 pmol

SMILES: CC(C)Cc1ccc(CC(=O)O)cc1 [IBUFENAC]
half-life [3]: 66 min
PB [1]: 1000 to 8600 pmol

SMILES: COC(=O)[C@H](c1ccccc1Cl)N1CCc2sccc2C1 [CLOPIDOGREL]
fraction unbound (in vitro): 0.98

SMILES: Cc1cc(OCCCS(C)(=O)=O)cc(C)c1-c1cccc(COc2ccc3c(c2)OC[C@H]3CC(=O)O[C@H]2O[C@@H](C(=O)O)[C@H](O)[C@H](O)[C@@H]2O)c1
half-life [4]: 30 min

SMILES: NC(=O)OCC(C=O)c1ccccc1 (configuration not stated)
half-life [6]: < 0.5 min

More lines, now with the values ahead:

half-life [2]: 1690 min
SMILES: Cc1ccc(Cl)c(Nc2ccccc2C(=O)O)c1Cl [MECLOFENAMIC ACID]

half-life [4]: 30 min
SMILES: Cc1cc(CC(=O)O)n(C)c1C(=O)c1ccc(Cl)cc1 [ZOMEPIRAC]

half-life [2]: 990 min
SMILES: Cc1cccc(Nc2ccccc2C(=O)O)c1C [MEFENAMIC ACID]

PB [5]: 1.4 pmol
SMILES: CN1C(C(=O)Nc2nccs2)=C(O)c2ccccc2S1(=O)=O [SUDOXICAM]

PB [5]: 3.6 pmol
SMILES: Cc1cnc(NC(=O)C2=C(O)c3ccccc3S(=O)(=O)N2C)s1 [MELOXICAM]

half-life [2]: 16.2 min
SMILES: CCCN(CCC)S(=O)(=O)c1ccc(C(=O)O)cc1 [PROBENECID]
